For assay [1], the system named is Alternaria solani (ALTESO). Briefly: microbe, parasite or virus in culture. As to conditions: Alternaria solani, 168 h, read-out: Observed efficacy. It counts as cell-based.
Assay [2] relates to Puccinia triticina (syn. P. recondita). Briefly: Green house use example 9: curative control of brown rust on wheat (PUCCRT K4). It counts as in vivo.
Assay [3] concerns Pyricularia oryzae (PYRIOR). Briefly: microbe, parasite or virus in culture. As to conditions: for inhibition of growth at 0.016 ppm / inhibition of growth at 0.063 ppm: Pyricularia oryzae, 168 h, read-out: Observed efficacy. It counts as cell-based.
Assay [4] has as its system Puccinia triticina (syn. P. recondita). Put plainly: Green house use example 10: preventative control of brown rust on wheat (PUCCRT P10). Format: in vivo.
The test system of assay [5] is Pyrenophora teres (PYRNTE), Qol resistant (F129L). Put plainly: microbe, parasite or virus in culture. The following applies: Pyrenophora teres, 168 h, read-out: Observed efficacy. Format: cell-based.
Assay [6] concerns Sclerotinia sclerotiorum (SCLESC). Briefly: microbe, parasite or virus in culture. The following applies: Sclerotinia sclerotiorum, 168 h, read-out: Observed efficacy. Format: cell-based.
Assay [7] deals with Septoria tritici (SEPTTR). Briefly: microbe, parasite or virus in culture. It counts as cell-based. As to conditions: Zymoseptoria tritici, 168 h, read-out: Observed efficacy.
In assay [8] the test system is Phakopsora pachyrhizi. Put plainly: Green house use example 13: curative control of soybean rust on soybeans (PHAKPA F129L K4). It counts as in vivo.
Assay [9] deals with Phakopsora pachyrhizi. Briefly: Green house use example 14: protective control of soybean rust on soybeans (PHAKPA F129L P2). Format: in vivo. The following applies: single compound, 0.5 ppm.
In another assay the test system is Monilinia sp. (MONISP). Put plainly: microbe, parasite or virus in culture. Format: cell-based. As to conditions: Monilinia, 168 h, read-out: Observed efficacy.
Assay [10] relates to Cercospora sojina (CERCSO). Format: cell-based.
Assay [11] has as its system Blumeria graminis f. sp. tritici. Briefly: Green house use example 11: control of powdery mildew on wheat, sprayed 2 days after inoculation (ERYSGT K2). It counts as in vivo. The following applies: G143A strain, single active, 63 ppm.
The mark [12] stands for this setting: Trial 2, single compound, 1 ppm.
[13] abbreviates: Trial 1, single compound, 1 ppm.
Where [14] appears, read: Trial 1, single compound, 4 ppm.
Setting [15] is: Trial 3, single compound, 4 ppm.

The values below come from EP4640052A1 (BASF SE, priority 2024, dated 2025).

Where “and” joins values, the source holds several entries; their conditions need not be identical. Equal entries are not always repeated.

`CO/C=C(/C(=O)OC)c1cccc(C)c1CO/N=C(\COC)c1ccc(F)cc1` [I.4, Methyl (E)-2-[2-[[(Z)-[1-(4-fluorophenyl)-2-methoxy-ethylidene]amino]oxymethyl]-3-methyl-phenyl]-3-methoxy-prop-2-enoate]: the inhibition of growth at 0.063 ppm was 50% in assay [1], 39% in assay [5], 0% in assay [6] and 16% in [7]. Moreover, the Observed efficacy in [2] (setting [12]) amounted to 49; in [4] (wheat, sprayed 10 days before inoculation, single active, 2 ppm), 12; in the assay with Phakopsora pachyrhizi [8] (Trial 1, single compound, 2 ppm), 36. For the same compound, the inhibition of growth at 0.016 ppm in assay [3] came to 28%; in assay [6], 0%. In addition, the inhibition of growth at 1 ppm stood at 64% in assay [5] and 41% in [6]. Moreover, in [7], the inhibition of growth at 0.25 ppm came to 43%.
Regarding `CO/C=C(/C(=O)OC)c1cccc(C)c1CO/N=C(\COC)c1ccc(F)cc1F` [I.7, Methyl (E)-2-[2-[[(Z)-[1-(2,4-difluorophenyl)-2-methoxy-ethylidene]amino]oxymethyl]-3-methyl-phenyl]-3-methoxy-prop-2-enoate], the inhibition of growth at 0.004 ppm in assay [1] worked out at 8%. Also, the inhibition of growth at 0.016 ppm was found to be 2% in assay [1], 27% in assay [3], 19% in assay [5] and 3% in assay [6]. Moreover, the inhibition of growth at 0.063 ppm in [1] was found to be 32%; in [3], 66%; in the assay on Monilinia sp. (MONISP), 45%; in assay [5] it was 46%; in [6], 2%; in [7] it was 0%. Besides, the Observed efficacy in [2] (setting [13]) is 9; in assay [2] (setting [14]) it was 67; in [4] (wheat, sprayed 10 days before inoculation, single active, 1 ppm), 19; in the assay with Phakopsora pachyrhizi [9], 85; in [10], 2% and 0%; in the assay with Phakopsora pachyrhizi [8] (setting [14]), 41. Moreover, in the assay on Phakopsora pachyrhizi [8] (setting [15]), the Observed efficacy was found to be 74. For the same compound, the results for the inhibition of growth at 0.25 ppm in [5], in [6] and in assay [7] were 76%, 20% and 55%, respectively.
For `Cn1cc(C(=O)Nc2ccccc2-c2cc(F)c(F)c(F)c2)c(C(F)F)n1` [fluxapyroxad, reference compound], the Observed efficacy in assay [2] (1 ppm) is reported as 20; in assay [2] (2 ppm) it was 67; in [3] (single active, 1 ppm), 19%; in assay [4] (1 ppm), 42.
For `CO/C=C(/C(=O)OC)c1cccc(Br)c1CO/N=C(\COC)c1c(F)cc(F)cc1F` [I.11, Methyl (E)-2-[3-bromo-2-[[(Z)-[2-methoxy-1-(2,4,6-trifluorophenyl)ethylidene]-amino]oxymethyl]phenyl]-3-methoxy-prop-2-enoate], the inhibition of growth at 0.063 ppm in [1] was 0%; in [3], 34%; in assay [5], 44%; in assay [6], 2%; in [7], 0%. Moreover, the figures for the inhibition of growth at 0.25 ppm in assay [1], in assay [5] and in [7] were 0%, 71% and 14%, respectively. The Observed efficacy in [2] (setting [13]) came out at 1; in assay [2] (setting [14]), 14; in assay [2] (setting [12]) it was 0; in assay [2] (Trial 2, single compound, 2 ppm), 0; with Phakopsora pachyrhizi [9], 59; in assay [11], 14. In addition, the Observed efficacy with Phakopsora pachyrhizi [8] (setting [14]) and in the assay with Phakopsora pachyrhizi [8] (setting [15]) was 12 throughout. Moreover, the inhibition of growth at 0.001 ppm in the assay on Monilinia sp. (MONISP) was determined as 0%. In addition, the inhibition of growth at 0.004 ppm with Monilinia sp. (MONISP) is 17%. Besides, the inhibition of growth at 0.016 ppm in [5] worked out at 6%. Further, the inhibition of growth at 1 ppm in assay [7] was 70%.
